pKd: −log10 of the molar value. Entries after “also recorded” stand apart in the source; their conditions may differ.
Experiments:
[1] = test system: Human NSCLC A549 cells; test: Cell proliferation assays (MTT, direct cell counting); type: cell-based; settings: A549, wild-type EGFR, KRas-G12S; three days treatment
Experimental: Cell Proliferation Assays—
First, MTT proliferation assay was carried out using cell growth determination kit according to manufacturer instructions (Sigma). Human NSCLC A549 cells which are expressing wild-type EGFR with KRas-G12S activation mutation were studied in these experiments. […] Medium was changed daily for three days, and cells were stained with MTT and DAPI when indicated.
Second, direct cells counting assays were also performed as follows. Microscopic images of 0.317 mm^2 area each well were acquired for MTT stained cells and cells were counted using ImageJ (NIH). […] Alternatively, the cells were stained with DAPI and microscopic images of whole wells were acquired using DeltaVision system (Applied Precision). Cells were counted using Particle Tracker PlugIn for ImageJ as above (FIG. 13).

[2] = target: T1, cytohesin-2 (Homo sapiens, UniProt Q99418); test: Radiolabel-based GEF-activity assay ([35S]-GTPγS binding) of full-length cytohesin-2 with myr-Arf1 or myr-Arf6; type: biochemical
T1 construct: steady-state enzymatic GEF-activity analysis of full-length cytohesin-2 or Sec7 domain with Arf1 and Arf6; made in house; host or cells: E. coli BL21DE3
T1 sequence (Q99418 1-400): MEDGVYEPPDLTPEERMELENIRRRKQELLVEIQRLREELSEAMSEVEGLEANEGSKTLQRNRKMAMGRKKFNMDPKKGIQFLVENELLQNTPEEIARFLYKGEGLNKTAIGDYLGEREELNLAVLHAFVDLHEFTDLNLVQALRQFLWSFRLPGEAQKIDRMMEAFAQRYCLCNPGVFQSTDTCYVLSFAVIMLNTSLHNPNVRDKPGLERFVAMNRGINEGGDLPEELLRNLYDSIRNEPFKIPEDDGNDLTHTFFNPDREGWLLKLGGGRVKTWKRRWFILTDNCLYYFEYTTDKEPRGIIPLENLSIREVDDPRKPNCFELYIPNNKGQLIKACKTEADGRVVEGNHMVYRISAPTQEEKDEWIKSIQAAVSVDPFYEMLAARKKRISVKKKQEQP
Experimental: Two assays were used to determine the GDP/GTP-exchange activity of both full-length cytohesin-2 and Sec7 domain.
a) Radiolabel-Based Assay.
The lipids were dissolved in chloroform. […] Proteins were trapped on nitrocellulose filters.
To test the potential signaling between V-ATPase and cytohesin-2/Arf GTP-binding proteins, a GEF-activity assay was established for cytohesin-2 (wt) and myristoylated myr-Arf6 (wt) and myr-Arf1 (wt) GTP-binding proteins (FIG. 2A). Human Arf1 was co-expressed with yeast N-myristoyltransferase in E. coli BL21/DE3 strain. Recombinant myr-Arf1 was purified from the E. coli lysate (A1) using an AKTApurifier equipped with HiTrapQ, Superdex200 columns (A2), and Phenyl Sepharose HP column (A3). Human Arf6 was also co-expressed with yeast N-myristoyltransferase in E. coli BL21/DE3 strain. Recombinant myr-Arf6 was extracted from insoluble fraction using Triton X-100 (B1). The extract was precipitated by 35% ammonium sulfate and myr-Arf6 purified with HiTrapQ column (B2). […] Several soluble, cell permeable and fluorescently labeled a2N1-17 derived peptides were synthesized, which were used in the current GEF-activity and structural studies in vitro.

[3] = test system: MTC cells; test: Cell population endocytic uptake assay (albumin-Alexa555, RITC-dextran) in MTC cells; type: cell-based; settings: for effect on endocytic uptake of fluid phase marker RITC-dextran: control and peptide-stimulated conditions, inhibitors; for effect on uptake of albumin-Alexa555 via receptor-mediated (CDE) pathway: control non-stimulated conditions; for effect on uptake of albumin-Alexa555 via receptor-mediated (CDE) pathway / effect on uptake of albumin-Alexa555 via FITC-a2N1-17-TAT peptide-induced macropinocytosis (CIE) pathway: 1 μM bafilomycin A1, 100 μM DMA or 100 μM EIPA; for effect on uptake of albumin-Alexa555 via FITC-a2N1-17-TAT peptide-induced macropinocytosis (CIE) pathway: peptide-stimulated
Experimental: (§1) Cell Population Albumin Endocytic Uptake Assay—
(§2) Quantitative endocytic uptake of albumin-Alexa555 and RITC-dextran was performed using a cell population assay as previously described (Hurtado-Lorenzo et al. (Nat Cell Biol 8, 124-136, 2006)). HeLa cells were seeded on 48-well plates (5,000 cells/well) and grown for 5 days. MTC cells were seeded on 48-well plates (5,000 cells/well) and grown for 7 days until polarized, followed by starvation for 2 days in serum-free DMEM medium. Cells were incubated in 200 μl of Ringer buffer (pH 7.4) containing either 200 μg/ml albumin-Alexa555 or 500 μg/ml RITC-dextran in the presence of 5 μM FITC-TAT or 5 μM FITC-a2N1-17-TAT peptides. As indicated, cells were also treated with 1 μM bafilomycin A1, 1 mM amiloride, 100 μM DMA or 100 μM EIPA. At the indicated times, cells were washed with Ringer's buffer (pH 6.0) for three times and were permeabilized in 20 mM MOPS (pH 7.0), 0.1% Triton X-100. The fluorescence was measured using a DTX 880 Microplate Reader (Beckman) with 535-nm excitation and 595-nm emission filters (FIGS. 7, 8, and 12).

[4] = test system: MTC cells; test: Cell population albumin degradation assay (DQ-Red BSA); type: cell-based; settings: 5 μM peptides, 1 μM bafilomycin A1, 20 mM NH4Cl, 1 mM amiloride, 100 μM DMA
Experimental: Cell Population Albumin Degradation Assay—
Quantitative protein degradation assay was performed using DQ-Red BSA. MTC cells were seeded on 48-well plate (5,000 cells/well) and grown for 7 days until being polarized, followed by starvation for two days in serum-free DMEM medium. Cells were washed with Ringer buffer (pH 6.0) for three times and with Ringer buffer (pH 7.4) once. Cells were then incubated in 200 μl of Ringer buffer (pH 7.4) containing as indicated: 5 μM FITC-TAT, 5 μM FITC-a2N1-17-TAT peptide, 1 μM baflomycin A1, 20 mM NH4Cl, 1 mM amiloride or 100 μM DMA. DQ-Red BSA was added to a final concentration of 10 μg/ml. The fluorescence was estimated using a DTX 880 Microplate Reader (Beckman) with 590-nm excitation and 625-nm emission filters every 3 minutes. The 48-well plate was kept at 37° C. in the microplate reader (FIG. 11).

[5] = test system: HeLa cells; test: Cell population endocytic uptake assay (albumin-Alexa555, RITC-dextran) in HeLa cells; type: cell-based; settings: 5 μM peptide
Experimental: as §1, §2

[6] = test system: MTC cells; test: Pulse-chase live time-lapse confocal imaging and tracking of endocytic vesicles; type: cell-based
Experimental: Pulse-Chase Experiments and Live Time-Lapse Confocal Fluorescence Imaging—
Live cell imaging of MTC cells was performed using time-lapse confocal fluorescent imaging as previously described (Hurtado-Lorenzo et al. (Nat Cell Biol 8, 124-136, 2006)). MTC cells were seeded on FluoroDish (World Precision Instruments, Inc) (25,000-100,000 cells/dish) and grown to about 50% confluency. To label the organelles of the endocytic pathway in vivo, MTC cells were transfected using lipofectamine 2000 (Invitrogen) with 5 μg of the plasmids: i) EEA1-GFP or Rab5-EGFP (early endosomal markers); ii) Rab7-EGFP (late endosomal marker), and iii) LAMP1-mGFP (lysosomal marker). After two days, the cells were washed for three times with Ringer's buffer (pH 6.0) followed by one wash with Ringer's buffer (pH 7.4) at 37° C., and i) pulsed for 15 min with 5 μM FITC-TAT and 100 μg/ml albumin-Alexa594: ii) pulsed for 15 min with 5 μM FITC-a2N1-17-TAT and 100 μg/ml albumin-Alexa594; or iii) pre-incubated in the presence or absence of 1 μM bafilomycin A1 and pulsed with 100 μg/ml albumin-Alexa594. The MTC cells transfected with EEA1-GFP, Rab5-EGFP, Rab7-EGFP and LAMP1-GFP plasmids were pulsed for 6-15 min with 5 μM of CTMR-a2N1-17-TAT peptide. After the pulse, cells were washed either by perfusion or rinsing with Ringer's buffer (pH 7.4) and incubated in an environmental chamber (37° C., 5% CO2) coupled to a Nikon inverted microscope. Videos were acquired with a spinning-disc confocal imaging system Ultra View RS (Perkin Elmer). FIGS. 9 and 10 show frames from these movies.
Image Analysis and Tracking of Endocytic Vesicles—
Dynamics of the movement of early endosomes, late endosomes and lysosomes labeled with either: i) albumin-Alexa594; ii) FITC-a2N1-17-TAT and albumin-Alexa594; or iii) CTMR-a2N1-17-TAT and transfected EEA1-GFP markers were tracked with Particle Tracker PlugIn (Merkulova et al. (Biochim BiophysActa 1797, 1398-1409, 2010)) for ImageJ (NIH). The trajectories that appeared for over 30 frames were further analyzed. The two-dimensional displacement between consecutive frames was calculated from changes in X and Y position coordinates and speed was calculated by dividing the displacement by time. The two-dimensional displacements between all possible combinations of frames were also calculated and the longest distance was defined as “maximum distance” of the trajectory. The speeds were averaged for 11 consecutive frames and the fastest speed was defined as “maximum speed” of the trajectory.

[7] = target: T2, Sec7-domain of cytohesin-2 (Homo sapiens, UniProt Q99418); settings: Biacore; a2N(1-17) peptide and Sec7-domain; read-out: dissociation constant KD; cited from earlier work
T2 sequence (Q99418 72-201 limits assumed): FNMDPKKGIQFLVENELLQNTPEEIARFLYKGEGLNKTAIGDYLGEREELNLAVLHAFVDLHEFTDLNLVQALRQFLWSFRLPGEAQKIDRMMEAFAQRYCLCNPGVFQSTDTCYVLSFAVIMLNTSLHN

[8] = EEA1-EGFP positive early endosomes, peptide in cytosol of MTC cells, 5 μM

MGELFRSEEMTLAQLFL [a1N1-17]
inhibition of proliferation of human lung cancer A549 cells [1]: very potent inhibitors

FITC-TAT: biologically inactive control peptide, FITC-labelled TAT sequence (YGRKKRRQRRR; SEQ ID NO:33); also purchased from Anaspec
potently inhibits the enzymatic activity of cytohesin-2 (in words) ([2]; with both myr-Arf6 and myr-Arf1 as substrate): not
effect on endocytic uptake of albumin-Alexa555 (in words) ([3]; 5 μM peptide): no effect and not
effect on uptake of fluid-phase marker RITC-dextran ([3]; 5 μM peptide): not
effect on degradation of DQ-Red-BSA in endosomal/lysosomal compartments [4]: did not have any effect; also recorded: do not affect
effect on uptake of RITC-dextran [5]: not
effect on uptake of albumin-Alexa555 [5]: not

CN(C)c1nc(N)c(C(=O)N=C(N)N)nc1Cl.Cl [DMA, 5-N,N-dimethylamiloride hydrochloride]
effect on endocytic uptake of fluid phase marker RITC-dextran [3]: not modulated
effect on uptake of albumin-Alexa555 via receptor-mediated (CDE) pathway ([3]; hydrochloride): does not affect; also recorded: does not modulate
effect on uptake of albumin-Alexa555 via FITC-a2N1-17-TAT peptide-induced macropinocytosis (CIE) pathway ([3]; hydrochloride): could inhibit; also recorded: strongly inhibits
effect on degradation of DQ-Red-BSA in endosomal/lysosomal compartments ([4]; hydrochloride): significantly stimulated; also recorded: increased

MASVFRSEEMCLSQVFL [a4N1-17]
inhibition of proliferation of human lung cancer A549 cells [1]: very potent inhibitors

CO/C1=C\C(C)=C\[C@@H](C)[C@@H](O)[C@@H](C)C/C(C)=C/C=C/[C@H](OC)[C@@H]([C@@H](C)[C@@H](O)[C@H](C)[C@@]2(O)C[C@@H](O)[C@H](C)[C@@H](C(C)C)O2)OC1=O [bafilomycin A1]
effect on moving distance of albumin-Alexa594 positive vesicles ([6]; MTC cells, 1 μM bafilomycin A1): time-dependent inhibitory effect
inhibitory effect on speed of albumin-Alexa594 positive vesicles ([6]; MTC cells, late stages of trafficking, 1 μM bafilomycin A1): 20%
effect on endocytic uptake of fluid phase marker RITC-dextran [3]: not modulated
effect on uptake of albumin-Alexa555 via receptor-mediated (CDE) pathway [3]: inhibitory action; also recorded: inhibits
effect on uptake of albumin-Alexa555 via FITC-a2N1-17-TAT peptide-induced macropinocytosis (CIE) pathway [3]: no effect; also recorded: does not modulate
effect on degradation of DQ-Red-BSA in endosomal/lysosomal compartments [4]: strongly inhibited

Cl.N [NH4Cl]
effect on degradation of DQ-Red-BSA in endosomal/lysosomal compartments [4]: strongly inhibited

CCN(c1nc(N)c(C(=O)N=C(N)N)nc1Cl)C(C)C [EIPA, 5-(N-ethyl-N-isopropyl)amiloride]
effect on uptake of albumin-Alexa555 via receptor-mediated (CDE) pathway [3]: does not affect
effect on uptake of albumin-Alexa555 via FITC-a2N1-17-TAT peptide-induced macropinocytosis (CIE) pathway [3]: could inhibit

MGSLFRSESMCLAQLFL [a2N1-17]
more potent inhibitor of cytohesin-2 than SecinH3 ([2]; relative to SecinH3): up to 150 times
inhibition of proliferation of human lung cancer A549 cells [1]: very potent inhibitors

MGSLFRSETMCLAQLFL [a2N(1-17)]
pKd [7]: 6.46

N=C(N)NC(=O)c1nc(Cl)c(N)nc1N [amiloride]
effect on degradation of DQ-Red-BSA in endosomal/lysosomal compartments [4]: significantly stimulated

CTMR- MGSLFRSESMCLAQLFL - YGRKKRRQRRR [CTMR-a2N1-17-TAT]
moving distance of early endosomes [6, 8]: significant increase
moving speed of early endosomes [6, 8]: significant increase

MGSMFRSEEVALVQLLL [a3N1-17]
inhibition of proliferation of human lung cancer A549 cells [1]: very potent inhibitors
